Assay results taken from patent US6403647B1, “Pulsed administration of compositions for the treatment of blood disorders” (priority 1996, dated 2002).

Tests used:
fetal globin [1] = test: Fetal globin production in erythroid progenitor colonies (Bfu-e), sickle cell anemia patient; assay type: cell-based, human; details: controls 48% of non-α globin
fetal globin [2] = test: Proportion of fetal globin-expressing cells in culture, fluorescent antibodies, sickle cell patient; assay type: cell-based, human; details: 14 days, controls 40.7%
Protocol: In a fourth experiment, erythroid cells were obtained from a sickle cell patient. These cells were established in culture both with and without test a variety of test compounds. Cultures were incubated for 14 days in methylcellulose media with maximal concentrations of all hematopoietic growth factors (GM-CSF, SCF, EPO). Colonies were analyzed using fluorescent monoclonal antibodies against fetal globin to determine the proportion of erythroid cells that expressed fetal globin.

[3] = system: system A transport of amino acids; test: Uptake of 3H-methyl-aminoisobutyric acid (MeAIB) into erythroblasts; assay type: cell-based; details: for amino acid (MeAIB) uptake / transport: 2.0 mM, relative to untreated fetal liver erythroid cells; for inhibition of MeAIB uptake: after 60 and 120 minutes
Protocol: Erythroblasts were tested for alterations in uptake of radio-labelled amino acid (^3H-methyl-aminoisobutyric acid; MeAIB) in the presence of AB (arginine butyrate), AMHCA (α-methylhydrocinnamic acid), PAA (phenoxyacetic acid), and IBT (isobutyramide), each at 2.0 mM.

Bfu-e = test: Erythroid colony (Bfu-e) proliferation with maximal growth factors, normal subject; assay type: cell-based, human; details: 0.2-0.5 mM where given
Excerpt: Erythroid cells were obtained, as described in Example 1, from a normal subject and cultured on semi-solid medium in the presence of a maximal amount of erythroid growth factors including IL-6, GM-CSF, SCF and EPO. Erythroid proliferation in the presence of these factors is expected to be maximal and, therefore, any increases observed would be significant.

human fetal liver cells = test: Erythroid progenitor colony proliferation, fetal liver cells; assay type: cell-based; details: 0.2 mM, maximal growth factors, p<0.025
Protocol: In a third experiment, human fetal liver cells were also tested. As fetal cells are known not to respond to the presence of the growth factors, any increases observed are highly significant. Erythroid progenitor cultures were established from fetal liver and plated with maximal amounts of growth factors. To these plates were added; lane 1, 2-(4′-methoxyphenoxy) propionic acid; lane 2, phenoxyacetic acid; and lane 3, α-methylhydrocinnamic acid; all at a concentration of 0.2 mM.

[4] = DNA fragmentation assays (cell viability); assay type: cell-based
Excerpt: Normal cell viability, the viability of an untransformed or uninfected cell, can be determined from analyzing the effects of the composition on one or more biological processes of the cell. Detrimental interference with one or more of these cellular processes becomes significant when the process becomes abnormal. Examples of quantitatable and qualifiable biological processes include the processes of cell division, protein synthesis, nucleic acid (DNA or RNA) synthesis, nucleic acid (principally DNA) fragmentation and apoptosis. Others processes include specific enzyme activities, the activities of the cellular transportation systems such as the transportation of amino acids by system A (neutral), system B (acidic) or system C (basic), and the expression of a cell surface protein. […] Abnormal cell division, for example, can be mitosis which occurs too rapidly, as in a malignancy, or unstably, resulting in programmed cell death or apoptosis, detected by increased DNA degradation. The determination of abnormal cell viability can be made on comparison with untreated control cells. Compositions preferably increase normal cell viability. Increased cell viability can be determined by those of ordinary skill in the art using, for example, DNA fragmentation analysis. […] Determinations of increased or decreased viability can also be concluded from an analysis of the results of multiple different assays. Where multiple tests provide conflicting results, accurate conclusions can still be drawn by those of ordinary skill based upon the cell type, the correctness or correlation of the tests with actual conditions and the type of composition.
Patients with blood disorders are typically quite infirm with, for example, iron damaged organs and systems. Most treatments further tax the patient's already frail health in an effort to combat the disorder.

[5] = system: K562 human erythroleukemia cells; details: cited from earlier work
γ-globin expression = test: γ-globin mRNA by RNase protection in erythroid cell cultures of normal individuals; assay type: cell-based, human; details: for x increase in % s: over ChFCS
Protocol: Fetal globin production was determined in erythroid progenitor cells cultured in the presence or absence of test compositions. Erythroid cells were purified from blood obtained from a normal individual . […] Erythroid cell cultures were established with the following conditions: IMDM methylcellulose media, erythropoietin (3 U/ml), the human subjects' mononuclear cells, 30% charcoal-absorbed fetal calf serum, and the test compounds at varying micromolar concentrations.
Compounds were tested for their ability to induce expression of fetal globin expression in erythroid cell cultures established from the peripheral blood of normal individuals. Colonies were harvested and assayed for globin mRNA following 14 days of culture. Each compound was tested in duplicate cultures from 2-4 individual human subjects. Globin expression was quantitated by RNase protection assay for % gamma globin as a fraction of total non-alpha globin (% gamma/gamma+beta globin mRNA).

## CCC(C)(C)C(=O)O [2,2-dimethylbutyric acid]
Fetal globin [1]
  increase in fetal globin over controls: 24%
Fetal globin [2]; concentration not given
  Increase in γ-Globin Expressing Cells: 70.1%
[3]
  amino acid (MeAIB) uptake / transport: moderate inhibition of transport
  inhibition of MeAIB uptake: somewhat less so

## COc1ccc(OC(C)C(=O)O)cc1 (stereo not drawn) [2-(4′-methoxyphenoxy) propionic acid]
Bfu-e
  Bfu-e growth: further increase Bfu-e growth
Human fetal liver cells
  proliferation of colonies: increased proliferation of colonies
[3]
  amino acid (MeAIB) uptake / transport: moderate inhibition of transport
  inhibition of MeAIB uptake: somewhat less so

## CC(Oc1ccc(Cl)cc1)C(=O)O (stereo not drawn) [4-chlorophenoxy-2-propionic acid]
Bfu-e
  Bfu-e growth: further increase Bfu-e growth
Fetal globin [2]; 0.5 mM
  Increase in γ-Globin Expressing Cells: 59.7%

## CCCC(=O)OCC [butyric acid ethyl ester]
[4]
  DNA fragmentation in fragmentation assays: reduce DNA fragmentation

## CCCCCCCCCC(=O)O [caprate]
[5]
  ability to increase fetal globin expression: much less of an effect

## CCCCCC(=O)[O-].CCCCCC(=O)[O-].[Ca+2] [caproate]
[5]
  ability to increase fetal globin expression: much less of an effect

## CCCCCCCC(=O)O [caprylate]
[5]
  ability to increase fetal globin expression: much less of an effect

## CCOC(=O)/C=C/C(=O)O [fumaric acid monoethyl ester]
Fetal globin [2]; concentration not given
  Increase in γ-Globin Expressing Cells: 59.1%
[3]
  amino acid (MeAIB) uptake / transport: did not inhibit amino acid transport

## CC(C)C(N)=O [isobutyramide]
[4]
  cell viability in DNA fragmentation assays: decrease cell viability

## COCC(=O)O [methoxyacetic acid]
Fetal globin [1]
  increase in fetal globin over controls: 3%

## O=C(CCCCCCC(=O)NO)NO [suberoyl bis hydroxamic acid, Suberoyl bis hydroxamic acid]
γ-globin expression; 0.5 μM, group 1 (99-3a, 99-3b)
  x increase in % s: 1.6 x
γ-globin expression; 0.5 μM, group 1, subject 99-3a
  γ/γ + β: 13.54%
γ-globin expression; 0.5 μM, group 1, subject 99-3b
  γ/γ + β: 11.55%
γ-globin expression; 0.5 μM, group 1, subjects 99-3a, 99-3b
  γ/γ + β mean: 12.55%
γ-globin expression; 0.5 μM, group 2 (99-4, 99-5)
  x increase in % s: 0.9 x
γ-globin expression; 0.5 μM, group 2, subject 99-4
  γ/γ + β: 6.25%
γ-globin expression; 0.5 μM, group 2, subject 99-5
  γ/γ + β: 6.42%
γ-globin expression; 0.5 μM, group 2, subjects 99-4, 99-5
  γ/γ + β mean: 6.34%
γ-globin expression; 1 μM, group 1 (99-3a, 99-3b)
  x increase in % s: 1.3 x
γ-globin expression; 1 μM, group 1, subject 99-3a
  γ/γ + β: 10.99%
γ-globin expression; 1 μM, group 1, subject 99-3b
  γ/γ + β: 9.19%
γ-globin expression; 1 μM, group 1, subjects 99-3a, 99-3b
  γ/γ + β mean: 10.09%
γ-globin expression; 1 μM, group 2 (99-4, 99-5)
  x increase in % s: 1.2 x
γ-globin expression; 1 μM, group 2, subject 99-4
  γ/γ + β: 8.46%
γ-globin expression; 1 μM, group 2, subject 99-4 only
  γ/γ + β mean: 8.46%
γ-globin expression; 1 μM, group 3 (99-6, 99-7, 99-10)
  x increase in % s: 1.5 x
γ-globin expression; 1 μM, group 3, subject 99-6
  γ/γ + β: 5.41%
γ-globin expression; 1 μM, group 3, subject 99-7
  γ/γ + β: 10.76%
γ-globin expression; 1 μM, group 3, subject 99-10
  γ/γ + β: 6.92%
γ-globin expression; 1 μM, group 3, subjects 99-6, 99-7, 99-10
  γ/γ + β mean: 7.70%
γ-globin expression; 2 μM, group 1 (99-3a, 99-3b)
  x increase in % s: 2.9 x
γ-globin expression; 2 μM, group 1, subject 99-3a
  γ/γ + β: 21.36%
γ-globin expression; 2 μM, group 1, subject 99-3b
  γ/γ + β: 23.63%
γ-globin expression; 2 μM, group 1, subjects 99-3a, 99-3b
  γ/γ + β mean: 22.50%
γ-globin expression; 2 μM, group 2 (99-4, 99-5)
  x increase in % s: 1.5 x
γ-globin expression; 2 μM, group 2, subject 99-4
  γ/γ + β: 9.92%
γ-globin expression; 2 μM, group 2, subject 99-5
  γ/γ + β: 10.65%
γ-globin expression; 2 μM, group 2, subjects 99-4, 99-5
  γ/γ + β mean: 10.29%
γ-globin expression; 2 μM, group 3 (99-6, 99-7, 99-10)
  x increase in % s: 2.1 x
γ-globin expression; 2 μM, group 3, subject 99-6
  γ/γ + β: 6.65%
γ-globin expression; 2 μM, group 3, subject 99-7
  γ/γ + β: 15.75%
γ-globin expression; 2 μM, group 3, subject 99-10
  γ/γ + β: 10.00%
γ-globin expression; 2 μM, group 3, subjects 99-6, 99-7, 99-10
  γ/γ + β mean: 10.80%
γ-globin expression; 3 μM, group 1 (99-3a, 99-3b)
  x increase in % s: 3.2 x
γ-globin expression; 3 μM, group 1, subject 99-3a
  γ/γ + β: 24.90%
γ-globin expression; 3 μM, group 1, subject 99-3b
  γ/γ + β: 23.72%
γ-globin expression; 3 μM, group 1, subjects 99-3a, 99-3b
  γ/γ + β mean: 24.31%
γ-globin expression; 3 μM, group 2 (99-4, 99-5)
  x increase in % s: 2.6 x
γ-globin expression; 3 μM, group 2, subject 99-4
  γ/γ + β: 17.99%
γ-globin expression; 3 μM, group 2, subject 99-5
  γ/γ + β: 17.89%
γ-globin expression; 3 μM, group 2, subjects 99-4, 99-5
  γ/γ + β mean: 17.94%
γ-globin expression; 4 μM, group 1 (99-3a, 99-3b)
  x increase in % s: 6.4 x
γ-globin expression; 4 μM, group 1, subject 99-3a
  γ/γ + β: 48.57%
γ-globin expression; 4 μM, group 1, subject 99-3b
  γ/γ + β: 50.66%
γ-globin expression; 4 μM, group 1, subjects 99-3a, 99-3b
  γ/γ + β mean: 49.62%
γ-globin expression; 4 μM, group 2 (99-4, 99-5)
  x increase in % s: 3.4 x
γ-globin expression; 4 μM, group 2, subject 99-4
  γ/γ + β: 24.10%
γ-globin expression; 4 μM, group 2, subject 99-4 only
  γ/γ + β mean: 24.10%
γ-globin expression; 4 μM, group 3 (99-6, 99-7, 99-10)
  x increase in % s: 3.9 x
γ-globin expression; 4 μM, group 3, subject 99-6
  γ/γ + β: 13.33%
γ-globin expression; 4 μM, group 3, subject 99-7
  γ/γ + β: 30.45%
γ-globin expression; 4 μM, group 3, subject 99-10
  γ/γ + β: 15.73%
γ-globin expression; 4 μM, group 3, subjects 99-6, 99-7, 99-10
  γ/γ + β mean: 19.84%
γ-globin expression; 4 μM, group 4 (99-10, 00-1, 00-3)
  x increase in % s: 1.7 x
γ-globin expression; 4 μM, group 4, subject 00-1
  γ/γ + β: 4.82%
γ-globin expression; 4 μM, group 4, subject 00-3
  γ/γ + β: 5.01%
γ-globin expression; 4 μM, group 4, subject 99-10
  γ/γ + β: 11.38%
γ-globin expression; 4 μM, group 4, subjects 99-10, 00-1, 00-3
  γ/γ + β mean: 7.07%
γ-globin expression; 6 μM, group 3 (99-6, 99-7, 99-10)
  x increase in % s: 5.5 x
γ-globin expression; 6 μM, group 3, subject 99-6
  γ/γ + β: 22.97%
γ-globin expression; 6 μM, group 3, subject 99-7
  γ/γ + β: 31.51%
γ-globin expression; 6 μM, group 3, subject 99-10
  γ/γ + β: 29.15%
γ-globin expression; 6 μM, group 3, subjects 99-6, 99-7, 99-10
  γ/γ + β mean: 27.88%
γ-globin expression; 6 μM, group 4 (99-10, 00-1, 00-3)
  x increase in % s: 2.7 x
γ-globin expression; 6 μM, group 4, subject 00-1
  γ/γ + β: 9.46%
γ-globin expression; 6 μM, group 4, subject 00-3
  γ/γ + β: 8.89%
γ-globin expression; 6 μM, group 4, subject 99-10
  γ/γ + β: 16.34%
γ-globin expression; 6 μM, group 4, subjects 99-10, 00-1, 00-3
  γ/γ + β mean: 11.56%
γ-globin expression; 8 μM, group 3 (99-6, 99-7, 99-10)
  x increase in % s: 7.4 x
γ-globin expression; 8 μM, group 3, subject 99-6
  γ/γ + β: 31.99%
γ-globin expression; 8 μM, group 3, subject 99-7
  γ/γ + β: 44.02%
γ-globin expression; 8 μM, group 3, subject 99-10
  γ/γ + β: 35.73%
γ-globin expression; 8 μM, group 3, subjects 99-6, 99-7, 99-10
  γ/γ + β mean: 37.25%
γ-globin expression; 8 μM, group 4 (99-10, 00-1, 00-3)
  x increase in % s: 4.4 x
γ-globin expression; 8 μM, group 4, subject 00-1
  γ/γ + β: 12.88%
γ-globin expression; 8 μM, group 4, subject 00-3
  γ/γ + β: 21.68%
γ-globin expression; 8 μM, group 4, subject 99-10
  γ/γ + β: 21.37%
γ-globin expression; 8 μM, group 4, subjects 99-10, 00-1, 00-3
  γ/γ + β mean: 18.64%
γ-globin expression; 10 μM, group 4 (99-10, 00-1, 00-3)
  x increase in % s: 7.3 x
γ-globin expression; 10 μM, group 4, subject 00-1
  γ/γ + β: 27.89%
γ-globin expression; 10 μM, group 4, subject 00-3
  γ/γ + β: 31.25%
γ-globin expression; 10 μM, group 4, subject 99-10
  γ/γ + β: 35.06%
γ-globin expression; 10 μM, group 4, subjects 99-10, 00-1, 00-3
  γ/γ + β mean: 31.40%
γ-globin expression; 12 μM, group 4 (99-10, 00-1, 00-3)
  x increase in % s: 10.8 x
γ-globin expression; 12 μM, group 4, subject 00-3
  γ/γ + β: 45.69%
γ-globin expression; 12 μM, group 4, subject 99-10
  γ/γ + β: 46.94%
γ-globin expression; 12 μM, group 4, subjects 99-10, 00-3
  γ/γ + β mean: 46.32%

## O=C(O)CSc1ccccc1 [thiophenoxyacetic acid]
Fetal globin [1]
  increase in fetal globin over controls: 38%

## CC(=Cc1ccccc1)C(=O)O [α-methylcinnamic acid]
Fetal globin [1]
  increase in fetal globin over controls: 12%

## diethyl butyric acid
[3]
  amino acid (MeAIB) uptake / transport: did not inhibit amino acid transport
